Measured values published in publication PMC10873978, “Novel tetrahydroisoquinolines as DHFR and CDK2 inhibitors: synthesis, characterization, anticancer activity and antioxidant properties” (BMC Chemistry, 2024).
Entries after “also recorded” stand apart in the source; their conditions may differ.

Tests used:
MCF7 cell line = experiment: In vitro cytotoxic activity, MTT method, MCF7; type: cell-based, human; settings: for IC50: Homo sapiens, MCF7, MCF7 cell line, MTT
Procedure: (§1) Cell lines: The in vitro human breast cancerous cell line (MCF7), lung cancerous cell lines (A549) and normal cell lines were purchased from Serum and Vaccine formulation in Cairo-Egypt.
(§2) In vitro cytotoxic activity of all synthesized compounds against two human breast cell line (MCF7) and lung cell lines (A549) was evaluated according to the MTT method. Firstly, Growth the cell line medium in 96 well tissue culture plate was injected with 10^5 cells/mL (100 uL/plate well) of the cell line and incubated at 37 °C for 24 h to develop a monolayer sheet then the formed growth medium was poured from 96 well microtiter plates after the confluent sheet of cells. […] Secondly, add 0.1 mL of each concentration tetrahydroisoquinoline sample to each plate. The plates were incubated at 37 °C. Thirdly MTT solution (5 mg/mL in PBS) is prepared. Add 20 µL of MTT solution to each well plates. And shaking in 150 rpm for 5 min, to mix the MTT into the media. Then incubate at (37 °C, 5% CO2) for 1–5 h. Finally read the optical density at 560 nm and subtract background at 620 nm.
(§3) In this work, doxorubicin was used as a positive control drug for comparison with the synthesized compounds under the same experimental conditions.

A549 cell line = experiment: In vitro cytotoxic activity, MTT method, A549; settings: for IC50: Homo sapiens, read-out: IC50 ± SD
Procedure: as §1, §2, §3

[1] = DPPH scavenging antioxidant activity; settings: for antioxidant activity compared with Vitamin C: DPPH
Procedure: The antioxidant activity of ten compounds was determined using DPPH [32–34]. A solution 1: prepared by dissolving DPPH (0.002 g) in ethanol (50 mL etnanol). Solution 2: prepared by dissolving different weights 0.05, 0.01 g of each sample in 1 mL of DMSO then take 10 µL of each sample solution with 1 mL ethanol. Then mix 1 mL of solution 1 with 1 mL of solution 2 then vortex the resulting mixture in the dark for about 30 min. The absorbance of the mixture was measured by spectrophotometer at λmax = 517 nm against blank 1 mL absolute ethanol and compared to the ascorbic acid (Vitamin C).
Ten newly synthesized compounds were studied as in vitro antioxidants by measuring of their DPPH scavenging activity which is represented as a percentage % [32]^. Results are represented by mean ± SD of three replicates. […] The higher dose concentration of 0.05 μg/mL represents higher antioxidant activity. […] The high antioxidant activity is referred to the presence of C=O, NH2, and OH groups like ascorbic acid which can be easily oxidized and reduced and can be used as antioxidant drugs. (Fig. 8 and Table 9).

CC(=O)C1C(c2ccc(N(C)C)cc2)c2c(C)nc(SCC#N)c(C#N)c2CC1(C)O (stereo not shown) [Compound 6, 2-[(7-Acetyl-4-cyano-1,6-dimethyl-6-hydroxy-8-(4-N,N-dimethylamino-phenyl)-5,6,7,8-tetrahydroisoquinolin-3-yl)thio]acetonitrile]
IC50 (MCF7 cell line): 329 ± 5 nM
Viability % (MCF7 cell line; MCF7, 0.0487 µMol): 80.118%
Toxicity % (MCF7 cell line; MCF7, 0.0975 µMol): 25.5567%
Viability % (MCF7 cell line; MCF7, 0.0975 µMol): 74.5543%
Toxicity % (MCF7 cell line; MCF7, 0.195 µMol): 38.24%
Viability % (MCF7 cell line; MCF7, 0.195 µMol): 61.76%
Toxicity % (MCF7 cell line; MCF7, 0.391 µMol): 59.68%
Viability % (MCF7 cell line; MCF7, 0.391 µMol): 40.32%
Toxicity % (MCF7 cell line; MCF7, 0.781 µMol): 70.71%
Viability % (MCF7 cell line; MCF7, 0.781 µMol): 29.29%
Toxicity % (MCF7 cell line; MCF7, 1.562 µMol): 76.35%
Viability % (MCF7 cell line; MCF7, 1.562 µMol): 23.65%
Toxicity % (MCF7 cell line; MCF7, 3.125 µMol): 85.7%
Viability % (MCF7 cell line; MCF7, 3.125 µMol): 14.3%
Toxicity % (MCF7 cell line; MCF7, 6.25 µMol): 93.38%
Viability % (MCF7 cell line; MCF7, 6.25 µMol): 6.618%
Toxicity % (MCF7 cell line; MCF7, 12.5 µMol): 97.14%
Viability % (MCF7 cell line; MCF7, 12.5 µMol): 2.859%
Toxicity % (MCF7 cell line; MCF7, 25 µMol): 97.34%
Viability % (MCF7 cell line; MCF7, 25 µMol): 2.655%
Viability % (A549 cell line; A549, Conc. 0.0487 µMol): 99.7%
Toxicity % (A549 cell line; A549, Conc. 0.0975 µMol): 0.50%
Viability % (A549 cell line; A549, Conc. 0.0975 µMol): 99.5%
Toxicity % (A549 cell line; A549, Conc. 0.195 µMol): 0.6312%
Viability % (A549 cell line; A549, Conc. 0.195 µMol): 99.37%
Toxicity % (A549 cell line; A549, Conc. 0.391 µMol): 1.46%
Viability % (A549 cell line; A549, Conc. 0.391 µMol): 98.54%
Toxicity % (A549 cell line; A549, Conc. 0.781 µMol): 15.46%
Viability % (A549 cell line; A549, Conc. 0.781 µMol): 84.54%
Toxicity % (A549 cell line; A549, Conc. 1.562 µMol): 29.7%
Viability % (A549 cell line; A549, Conc. 1.562 µMol): 70.3%
Toxicity % (A549 cell line; A549, Conc. 3.125 µMol): 43.83%
Viability % (A549 cell line; A549, Conc. 3.125 µMol): 56.17%
Toxicity % (A549 cell line; A549, Conc. 6.25 µMol): 74.71%
Viability % (A549 cell line; A549, Conc. 6.25 µMol): 25.29%
Toxicity % (A549 cell line; A549, Conc. 12.5 µMol): 88.52%
Viability % (A549 cell line; A549, Conc. 12.5 µMol): 11.48%
Toxicity % (A549 cell line; A549, Conc. 25 µMol): 96.29%
Viability % (A549 cell line; A549, Conc. 25 µMol): 3.708%
IC50 (A549 cell line): 3736 ± 2 nM
DPPH scavenging, inhibition (%) ([1]; 0.01 µg/mL): 69.67 ± 5.65%
DPPH scavenging, inhibition (%) ([1]; 0.05 µg/mL): 83.72 ± 4.08%
antioxidant activity compared with Vitamin C [1]: higher result than Vitamin C; also recorded: higher antioxidant activity than Vitamin C

CC(=O)C1C(c2ccc(N(C)C)cc2)c2c(C)nc(SCC(=O)Nc3ccc(C)cc3)c(C#N)c2CC1(C)O (stereo not shown) [Compound 7b, 2-[(7-Acetyl-4-cyano-1,6-dimethyl-6-hydroxy-8-(4-N,N-dimethylamino-phenyl)-5,6,7,8-tetrahydroisoquinolin-3-yl)thio]-N-(4-tolyl)acetamide]
IC50 (MCF7 cell line): 474 ± 6 nM
Toxicity % (MCF7 cell line; MCF7, 0.0487 µMol): 4.569%
Viability % (MCF7 cell line; MCF7, 0.0487 µMol): 95.4311%
Toxicity % (MCF7 cell line; MCF7, 0.0975 µMol): 6.234%
Viability % (MCF7 cell line; MCF7, 0.0975 µMol): 93.77%
Toxicity % (MCF7 cell line; MCF7, 0.195 µMol): 8.333%
Viability % (MCF7 cell line; MCF7, 0.195 µMol): 91.67%
Toxicity % (MCF7 cell line; MCF7, 0.391 µMol): 39.62%
Viability % (MCF7 cell line; MCF7, 0.391 µMol): 60.38%
Toxicity % (MCF7 cell line; MCF7, 0.781 µMol): 74.92%
Viability % (MCF7 cell line; MCF7, 0.781 µMol): 25.08%
Toxicity % (MCF7 cell line; MCF7, 1.562 µMol): 82.39%
Viability % (MCF7 cell line; MCF7, 1.562 µMol): 17.61%
Toxicity % (MCF7 cell line; MCF7, 3.125 µMol): 86.44%
Viability % (MCF7 cell line; MCF7, 3.125 µMol): 13.56%
Toxicity % (MCF7 cell line; MCF7, 6.25 µMol): 93.1%
Viability % (MCF7 cell line; MCF7, 6.25 µMol): 6.904%
Toxicity % (MCF7 cell line; MCF7, 12.5 µMol): 96.61%
Viability % (MCF7 cell line; MCF7, 12.5 µMol): 3.391%
Toxicity % (MCF7 cell line; MCF7, 25 µMol): 96.57%
Viability % (MCF7 cell line; MCF7, 25 µMol): 3.431%
Toxicity % (A549 cell line; A549, Conc. 0.04875 µMol): 0.2467%
Viability % (A549 cell line; A549, Conc. 0.04875 µMol): 99.7534%
Toxicity % (A549 cell line; A549, Conc. 0.0975 µMol): 0.3467%
Viability % (A549 cell line; A549, Conc. 0.0975 µMol): 99.6534%
Toxicity % (A549 cell line; A549, Conc. 0.195 µMol): 0.5128%
Viability % (A549 cell line; A549, Conc. 0.195 µMol): 99.49%
Toxicity % (A549 cell line; A549, Conc. 0.391 µMol): 14.2%
Viability % (A549 cell line; A549, Conc. 0.391 µMol): 85.8%
Toxicity % (A549 cell line; A549, Conc. 0.781 µMol): 35.82%
Viability % (A549 cell line; A549, Conc. 0.781 µMol): 64.18%
Toxicity % (A549 cell line; A549, Conc. 1.562 µMol): 53.81%
Viability % (A549 cell line; A549, Conc. 1.562 µMol): 46.19%
Toxicity % (A549 cell line; A549, Conc. 3.125 µMol): 72.39%
Viability % (A549 cell line; A549, Conc. 3.125 µMol): 27.61%
Toxicity % (A549 cell line; A549, Conc. 6.25 µMol): 86.39%
Viability % (A549 cell line; A549, Conc. 6.25 µMol): 13.61%
Toxicity % (A549 cell line; A549, Conc. 12.5 µMol): 93.85%
Viability % (A549 cell line; A549, Conc. 12.5 µMol): 6.154%
Toxicity % (A549 cell line; A549, Conc. 25 µMol): 96.41%
Viability % (A549 cell line; A549, Conc. 25 µMol): 3.59%
IC50 (A549 cell line): 987 ± 2 nM
DPPH scavenging, inhibition (%) ([1]; 0.01 µg/mL): 48.59 ± 0.73%
DPPH scavenging, inhibition (%) ([1]; 0.05 µg/mL): 52.19 ± 0.58%

CC(=O)C1C(c2ccc(N(C)C)cc2)c2c(C)nc(SCC(=O)Nc3ccc(Cl)cc3)c(C#N)c2CC1(C)O (stereo not shown) [Compound 7c, 2-[(7-Acetyl-4-cyano-1,6-dimethyl-6-hydroxy-8-(4-N,N-dimethylamino-phenyl)-,5,6,7,8-tetrahydroisoquinolin-3-yl)thio]-N-(4-chlorophenyl)acetamide]
IC50 (MCF7 cell line): 1491 ± 4 nM
Toxicity % (MCF7 cell line; MCF7, 0.0487 µMol): -0.6776%
Viability % (MCF7 cell line; MCF7, 0.0487 µMol): 100.4%
Toxicity % (MCF7 cell line; MCF7, 0.0975 µMol): -0.5335%
Viability % (MCF7 cell line; MCF7, 0.0975 µMol): 100.6%
Viability % (MCF7 cell line; MCF7, 0.195 µMol): 99.47%
Viability % (MCF7 cell line; MCF7, 0.391 µMol): 100.1634%
Toxicity % (MCF7 cell line; MCF7, 0.781 µMol): 8.333%
Viability % (MCF7 cell line; MCF7, 0.781 µMol): 91.67%
Toxicity % (MCF7 cell line; MCF7, 1.562 µMol): 36.68%
Viability % (MCF7 cell line; MCF7, 1.562 µMol): 63.32%
Toxicity % (MCF7 cell line; MCF7, 3.125 µMol): 65.48%
Viability % (MCF7 cell line; MCF7, 3.125 µMol): 34.52%
Toxicity % (MCF7 cell line; MCF7, 6.25 µMol): 86.36%
Viability % (MCF7 cell line; MCF7, 6.25 µMol): 13.64%
Toxicity % (MCF7 cell line; MCF7, 12.5 µMol): 80.15%
Viability % (MCF7 cell line; MCF7, 12.5 µMol): 19.85%
Toxicity % (MCF7 cell line; MCF7, 25 µMol): 96.77%
Viability % (MCF7 cell line; MCF7, 25 µMol): 3.227%
Toxicity % (A549 cell line; A549, Conc. 0.04875 µMol): 3.457%
Viability % (A549 cell line; A549, Conc. 0.04875 µMol): 96.54%
Toxicity % (A549 cell line; A549, Conc. 0.0975 µMol): 4.658%
Viability % (A549 cell line; A549, Conc. 0.0975 µMol): 95.3422%
Toxicity % (A549 cell line; A549, Conc. 0.195 µMol): 6.193%
Viability % (A549 cell line; A549, Conc. 0.195 µMol): 93.81%
Toxicity % (A549 cell line; A549, Conc. 0.391 µMol): 33.41%
Viability % (A549 cell line; A549, Conc. 0.391 µMol): 66.59%
Toxicity % (A549 cell line; A549, Conc. 0.781 µMol): 51.48%
Viability % (A549 cell line; A549, Conc. 0.781 µMol): 48.52%
Toxicity % (A549 cell line; A549, Conc. 1.562 µMol): 68.05%
Viability % (A549 cell line; A549, Conc. 1.562 µMol): 31.95%
Toxicity % (A549 cell line; A549, Conc. 3.125 µMol): 77.2%
Viability % (A549 cell line; A549, Conc. 3.125 µMol): 22.8%
Toxicity % (A549 cell line; A549, Conc. 6.25 µMol): 90.57%
Viability % (A549 cell line; A549, Conc. 6.25 µMol): 9.428%
Toxicity % (A549 cell line; A549, Conc. 12.5 µMol): 95.94%
Viability % (A549 cell line; A549, Conc. 12.5 µMol): 4.063%
Toxicity % (A549 cell line; A549, Conc. 25 µMol): 97.44%
Viability % (A549 cell line; A549, Conc. 25 µMol): 2.564%
IC50 (A549 cell line): 496 ± 3 nM
DPPH scavenging, inhibition (%) ([1]; 0.01 µg/mL): 77.90 ± 6.22%
DPPH scavenging, inhibition (%) ([1]; 0.05 µg/mL): 81.39 ± 4.99%
antioxidant activity compared with Vitamin C [1]: higher result than Vitamin C; also recorded: higher antioxidant activity than Vitamin C
